Laboratory results published in the supplement of paper PMC10307832.

How the values were obtained:
Assay in all cases: relative viability (nuclei count vs DMSO), 5 days (fraction); higher = more cells survive
[1] = compound: CO[C@@H]1[C@H](N(C)C(=O)c2ccccc2)C[C@H]2O[C@]1(C)n1c3ccccc3c3c4c(c5c6ccccc6n2c5c31)C(=O)NC4 [Midostaurin] + CC(=O)c1c(C)c2cnc(Nc3ccc(N4CCNCC4)cn3)nc2n(C2CCCC2)c1=O [Palbociclib] (partner 0.5 µM)
Summary of the method: (§1)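 Nuclei were stained with Hoechst during a one-step fixation (final 0.05% Triton X-100, 1% formaldehyde, 1 ug/ml Hoechst) carried out 5 days after dosing, then counted on 4× images. The cells, lung cancer lines in 1536-well plates, had been dosed by pin tool the day after seeding with one drug alone or a fixed anchor-drug dose plus five library-drug doses (not always all listed) in √10 steps. Relative viability is the nuclei count in treated wells divided by that in vehicle wells, and each value is the median of duplicate plates.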

[2] = compound: CO[C@@H]1[C@H](N(C)C(=O)c2ccccc2)C[C@H]2O[C@]1(C)n1c3ccccc3c3c4c(c5c6ccccc6n2c5c31)C(=O)NC4 [Midostaurin] + Cc1nc(NC(=O)N2CCC[C@H]2C(N)=O)sc1-c1ccnc(C(C)(C)C(F)(F)F)c1 [Alpelisib] (partner 2 µM)
Summary of the method: as §1

[3] = compound: CO[C@@H]1[C@H](N(C)C(=O)c2ccccc2)C[C@H]2O[C@]1(C)n1c3ccccc3c3c4c(c5c6ccccc6n2c5c31)C(=O)NC4 [Midostaurin] + NC(=O)Nc1cc(-c2cccc(F)c2)sc1C(=O)N[C@H]1CCCNC1 [AZD7762] (partner 0.2 µM)
Summary of the method: as §1

[4] = compound: COc1cc(-c2nn([C@H]3CC[C@H](N4CCN(C(C)=O)CC4)CC3)c3ncnc(N)c23)ccc1NC(=O)c1cc2ccccc2n1C + C[C@@H](Oc1cc(-c2cnn(C3CCNCC3)c2)cnc1N)c1c(Cl)ccc(F)c1Cl [Crizotinib] (partner 1 µM)
Summary of the method: as §1

[5] = compound: COc1cc(-c2nn([C@H]3CC[C@H](N4CCN(C(C)=O)CC4)CC3)c3ncnc(N)c23)ccc1NC(=O)c1cc2ccccc2n1C + Nc1ncn([C@H]2C[C@H](O)[C@@H](CO)O2)c(=O)n1 [Decitabine] (partner 2 µM)
Summary of the method: as §1

Cell Line	relative viability ([1]; first compound 0.01 µM)	relative viability ([1]; first compound 0.03162 µM)	relative viability ([1]; first compound 0.1 µM)	relative viability ([1]; first compound 0.3162 µM)	relative viability ([2]; first compound 0.01 µM)	relative viability ([2]; first compound 0.03162 µM)	relative viability ([2]; first compound 0.1 µM)	relative viability ([2]; first compound 0.3162 µM)	relative viability ([3]; first compound 0.01 µM)	relative viability ([3]; first compound 0.03162 µM)	relative viability ([3]; first compound 0.1 µM)	relative viability ([3]; first compound 0.3162 µM)	relative viability ([4]; first compound 0.0128 µM)	relative viability ([4]; first compound 0.04048 µM)	relative viability ([4]; first compound 0.128 µM)	relative viability ([4]; first compound 1.28 µM)	relative viability ([5]; first compound 0.0128 µM)	relative viability ([5]; first compound 0.04048 µM)	relative viability ([5]; first compound 0.128 µM)	relative viability ([5]; first compound 1.28 µM)
NCI-H2126	0.332	0.364	0.359	0.383	0.772	0.733	0.765	0.804	0.95	0.926	0.995	1.03	1.16	1.08	1.04	0.749	0.612	0.551	0.608	0.457
LXF-289	0.625	0.615	0.645	0.642	0.997	1.02	0.952	0.976	1.14	1.13	1.07	1.09	0.863	0.794	0.864	0.98	0.419	0.368	0.369	0.362
NCI-H2405	0.534	0.575	0.521	0.51	0.87	0.903	–	0.573	0.682	0.804	0.847	0.75	0.827	–	0.733	0.442	0.861	0.55	0.657	0.362
NCI-H1755	0.482	0.433	0.429	0.383	0.921	0.912	0.75	0.694	0.492	0.422	0.447	0.402	1	0.795	0.875	0.616	0.768	0.738	0.699	0.611
HCC-78	0.536	0.474	0.474	0.469	0.413	0.305	0.358	0.296	0.682	1.09	0.644	0.483	0.338	0.432	0.325	0.18	0.674	0.689	0.701	0.539
LOU-NH91	0.514	0.527	0.499	0.552	0.776	0.673	0.724	0.756	0.791	0.724	0.778	0.809	0.745	0.811	0.753	0.638	0.792	0.898	0.842	0.804
NCI-H3122	0.156	0.241	0.197	0.229	0.86	0.683	0.924	0.878	0.981	0.908	0.962	1.06	0.289	–	0.269	0.229	0.44	–	0.447	0.318
HCC-827	0.423	0.521	0.503	0.506	0.984	1	0.948	1.02	0.246	0.206	0.237	0.215	0.903	0.963	0.94	0.685	0.336	0.318	0.357	0.29
